PubChem BioAssay AID493191 (Broad Institute, 2011)

What follows are molecules tested on MALME3 melanoma viability, CellTiter-Glo luminescence, 24 h (assay: MALME3 melanoma cell viability loss, dose response, orthogonal assay for MITF inhibitor project, CellTiter-Glo, cherry-picked (AID 493191)).

| Compound | AC50 |
| --- | --- |
| CC(C)Oc1ccc(C(CCNCc2ccc(O)cc2)c2ccccc2)cc1 (stereo not drawn) | 32.9 µM |
| COc1ccc(NC(=O)CCC(=O)N/N=C/c2ccc([N+](=O)[O-])s2)cc1 | 28.2 µM |
| O=[N+]([O-])c1cccc2c(N3CCCC3)ccnc12 | 4.82 µM |
| CC(=O)OCCNc1cc(Sc2nc3ccccc3[nH]2)c2nonc2c1[N+](=O)[O-] | 13.6 µM |
| Cc1nc2ccccc2n1/N=C/c1ccc([N+](=O)[O-])s1 | 26.4 µM |
| CCOC(=O)c1cc2sccc2n1CC(=O)N1c2ccccc2CC1C (stereo not drawn) | 25 µM |
| CCC(=O)N1CCN(c2ccc(NC(=O)c3ccc([N+](=O)[O-])o3)cc2Cl)CC1 | 9.97 µM |
| O=C(N/N=C\c1ccc([N+](=O)[O-])s1)c1cncc(Br)c1 | 20.2 µM |
| COc1ccc(C(=O)/C=C/C(=O)N(CC(=O)NC2CCCCC2)Cc2ccc(F)cc2)c(O)c1 | 7.85 µM |
| O=C(Nc1nc(-c2ccccn2)cs1)c1ccc([N+](=O)[O-])o1 | 28.5 µM |
| CCOC(=O)c1ccc(NC2=CC(=O)C(=O)c3ccccc32)cc1 | 5.16 µM |
| CCN1CCN(C2=C(NS(=O)(=O)c3ccc(Br)cc3)C(=O)c3ccccc3C2=O)CC1 | 20.1 µM |
| CC(C)(C)NC(=O)CCN(/N=C/c1ccc([N+](=O)[O-])o1)C1=NS(=O)(=O)c2ccccc21 | 31.9 µM |
| CN(C(=O)/C=C/c1ccc([N+](=O)[O-])s1)c1ccccc1 | 34.4 µM |
| CCN(CC)CCC(=O)N1C/C(=C/c2ccccc2)C(=O)/C(=C\c2ccccc2)C1 | 28.3 µM |
| Cc1c(CCOC(=O)c2ccc(Cl)cc2Cl)sc[n+]1CC(=O)c1ccc(Br)cc1 | 29.3 µM |
| N=c1n(CC(=O)c2ccc(Br)s2)c2ccccc2n1Cc1ccccc1 | 24.7 µM |
| Cc1ccc2nc(C)cc(Nc3ccc([N+](=O)[O-])cc3)c2c1 | 31.5 µM |
| CC1CCC(C(C)C)C(OC(=O)Cn2c(-c3ccc(Cl)cc3)[n+](C)c3ccccc32)C1 (stereo not drawn) | 11.7 µM |
| COC1=C(Nc2ccc(O)cc2)C(=O)c2ccccc2C1=O | 14.3 µM |
| CC(C)=NOc1cc(NC(=O)CCl)cc([N+](=O)[O-])c1 | 5.64 µM |
| Cn1c(SCC(=O)N/N=C/c2ccc([N+](=O)[O-])s2)nnc1-c1ccccc1 | 14.7 µM |

| Compound | AC50 |
| --- | --- |
| O=C(CNc1cccc2ccccc12)N/N=C/c1ccc([N+](=O)[O-])o1 | 16.3 µM |
| Cc1ccc(NC(=O)c2cc(N3C(=O)C=CC3=O)ccc2N2CCOCC2)cc1Cl | 23.5 µM |
| O=C(C#Cc1ccccc1)c1cccc([N+](=O)[O-])c1 | 10.8 µM |
| O=C(CCl)Nc1cccc(Oc2ccccc2)c1 | 28.7 µM |
| CCCC(=O)N1CCN(c2ccc(NC(=O)c3ccc([N+](=O)[O-])o3)cc2)CC1 | 8.62 µM |
| COc1ccccc1-c1cc(C(F)(F)F)nc(S(C)(=O)=O)n1 | 19.6 µM |
| FC(F)(F)c1cc(CCN2CCNC[C@@H]2Cc2ccccc2)cc(C(F)(F)F)c1 | 19.3 µM |
| CCn1c(/C=C/Nc2ccccc2)[n+](CC)c2cc(Cl)c(Cl)cc21 | 29.6 µM |
| CCSCCc1nnc(NC(=O)Nc2cccc(C(F)(F)F)c2)s1 | 29 µM |
| COC1=C(c2ccccc2)C(=O)c2ccccc2C1=O | 20.3 µM |
| Cc1ccc(NC2=C(Cl)C(=O)c3ccccc3C2=O)cc1 | 6.96 µM |
| Cc1ccc([N+](=O)[O-])cc1N1C(=O)CS/C1=N\NC(=O)c1cccnc1 | 24.2 µM |
| Cc1cc(NC(=O)c2ccc([N+](=O)[O-])o2)ccc1NC(=O)c1ccco1 | 12.5 µM |
| COc1ccc2nc(N3CCN(C(=O)c4ccc([N+](=O)[O-])o4)CC3)sc2c1 | 21.7 µM |
| CCC(C)(C)c1ccc(OCCCC[n+]2ccccc2)c(C(C)(C)CC)c1 | 10.8 µM |
| Cc1[nH]nc2nc(SCC(=O)NCCC3=CCCCC3)n(-c3ccc(Br)cc3)c(=N)c12 | 20.5 µM |
| CC(=O)c1cccc(NC(=O)/C=C/c2ccc([N+](=O)[O-])s2)c1 | 16.8 µM |
| Cc1ccc(NCC(=O)N/N=C\c2ccc([N+](=O)[O-])o2)cc1 | 25.3 µM |
| O=c1c2ccccc2nc(/C=C/c2ccc([N+](=O)[O-])o2)n1-c1ccc(O)cc1 | 14.5 µM |
| COc1ccccc1NC(=O)c1nc(S(=O)(=O)Cc2ccccc2)ncc1Cl | 6.97 µM |
| CCOC(=O)N1C(=O)[C@@](CC)(c2ccccc2)N1C(=O)OCC | 26.2 µM |
| CCOC(=O)c1nnn(-c2ccc([N+](=O)[O-])cc2[N+](=O)[O-])c1C | 16 µM |

| Compound | AC50 |
| --- | --- |
| CC1CC2(C)Oc3ccccc3CC2C(C)C1CNCCCN(C)C (stereo not drawn) | 15.9 µM |
| Cc1ccc(NC(=O)CCC(=O)N/N=C/c2ccc([N+](=O)[O-])o2)cc1C | 21.9 µM |
| COC(=O)c1ccc2c(c1O)C(=O)c1ccccc1C2=O | 2.82 µM |
| CC(=O)N1CCc2c(sc(NC(=O)c3ccc([N+](=O)[O-])o3)c2C#N)C1 | 9.37 µM |
| Cc1ccccc1-c1nc(-c2ccccn2)no1 | 22.2 µM |
| CCCCn1c(=N)n(CCOc2ccc(C)cc2)c2ccccc21 | 26.5 µM |
| Cc1c(N=C2C=CC(=O)c3ccccc32)c(=O)n(-c2ccccc2)n1C | 32 µM |
| CC(C)(c1ccccc1)c1ccc(OCC(O)CNC2CCN(Cc3ccccc3)CC2)cc1 (stereo not drawn) | 13.5 µM |
| CC1CCC(C(C)C)C(OC(=O)C[n+]2cc(-c3ccc(Cl)cc3)n3c2CCCCC3)C1 (stereo not drawn) | 18 µM |
| Cc1cc(C)c[n+](C2=C([O-])c3ccccc3C(=O)/C2=N\S(=O)(=O)c2cccs2)c1 | 9.5 µM |
| Cc1ccc(Cn2c(=N)n(CC(=O)c3ccc([N+](=O)[O-])cc3)c3ccccc32)cc1 | 18.6 µM |
| Cc1ccc(NC(=O)c2ccc([N+](=O)[O-])o2)cc1S(=O)(=O)N1CCOCC1 | 26.1 µM |
| CC1=C(CC(=O)c2ccccc2)C(=O)c2ccccc2C1=O | 12.7 µM |
| Cc1ccc(-c2nnc(SCC(=O)Nc3ccccc3F)o2)cc1 | 19.7 µM |
| O=C(NC1CCCC(C(F)(F)F)C1)c1ccc([N+](=O)[O-])o1 (stereo not drawn) | 20.8 µM |
| CC(C)C(=O)N1CCN(c2ccc(NC(=O)c3ccc([N+](=O)[O-])o3)cc2Cl)CC1 | 19.2 µM |
| CCN1CCN(c2ccc(S(=O)(=O)N3CCCCC3)cc2NC(=O)/C=C/c2ccc([N+](=O)[O-])cc2)CC1 | 23.9 µM |
| CCS(=O)(=O)c1ccc(N=Nc2ccc(O)c3ncccc23)c(OC)c1 | 5.85 µM |
| COc1cccc(/C=N/Nc2ccc(C(=O)O)cc2)c1O | 33.2 µM |
| CC(=O)Cn1ncc(Br)c(Br)c1=O | 14.6 µM |
| COc1ccc(C)c2sc(N(CCN(C)C)C(=O)/C=C/c3cccs3)nc12 | 25.1 µM |
| Cc1c(C(=O)Nc2ccc(S(=O)(=O)N(C)C3CCN(C)CC3)cc2)oc2c(Cl)cccc12 | 26.4 µM |

| Compound | AC50 |
| --- | --- |
| COc1ccc(C(=O)/C=C/C(=O)N(CC(=O)NC2CCCCC2)Cc2cccs2)c(O)c1 | 5.25 µM |
| Cc1ccc(C(C)C)c(OCc2nn(CC(=O)c3ccc(Cl)cc3)c3[n+]2CCCCC3)c1 | 18.4 µM |
| Cc1c(NC(=O)c2ccc([N+](=O)[O-])o2)cccc1-c1nc2ncccc2o1 | 15.4 µM |
| CCc1ccccc1NC(=O)CN(C)C(=O)Cn1ncc(Cl)c(Cl)c1=O | 11.8 µM |
| O=C(N/N=C\c1ccc([N+](=O)[O-])o1)C1COc2ccccc2O1 (stereo not drawn) | 32.7 µM |
| Cc1cc(-n2c(SCC(=O)NCCC3=CCCCC3)nc3n[nH]c(C)c3c2=N)ccc1Cl | 28.6 µM |
| Cc1ccccc1C(=O)N1CCN(c2ccc(NC(=O)c3ccc([N+](=O)[O-])o3)cc2)CC1 | 9.64 µM |
| CCOC(=O)c1ccc(NC(=O)c2nc(S(=O)(=O)Cc3ccccc3)ncc2Cl)cc1 | 4.47 µM |
| Cc1ccc(-n2nnnc2CNC(=O)c2ccc([N+](=O)[O-])o2)cc1C | 21.5 µM |
| O=C(Cn1ncc(Cl)c(Cl)c1=O)N1CCOCC1 | 20.6 µM |
| CC(=O)Nc1ccc(NC(=O)c2nc(S(=O)(=O)Cc3ccccc3)ncc2Cl)cc1 | 5.12 µM |
| O=c1c(Cl)c(Cl)cnn1-c1ccccc1 | 5.84 µM |
| O=C(Nc1ccc2oc(-c3cccnc3)nc2c1)c1ccc([N+](=O)[O-])o1 | 25.9 µM |
| O=C(Cn1ncc(Cl)c(Cl)c1=O)N1CCN(Cc2ccccc2)CC1 | 8.57 µM |
| CN1CCN(C2=C(NS(=O)(=O)c3cccs3)C(=O)c3ccccc3C2=O)CC1 | 14.6 µM |
| O=C(Nc1ccccc1N1CCN(C(=O)c2ccccc2)CC1)c1ccc([N+](=O)[O-])o1 | 27.1 µM |
| O=C(/C=C/c1ccc([N+](=O)[O-])s1)N1CCCCC1 | 30.7 µM |
| CCN1CCN(CCCNC(=O)c2ccc3c(c2)NC(=O)/C(=C\c2cccc(C)c2)S3)CC1 | 28.1 µM |
| CC(C)(C)C(=O)/C(=C/c1ccncc1)n1cncn1 | 21.9 µM |
| CS(=O)(=O)c1ncc(Cl)c(C(=O)Nc2ccc(N3CCOCC3)cc2)n1 | 10.7 µM |
| Cc1ccc(NC(=O)c2cc(N3C(=O)C=CC3=O)ccc2N2CCOCC2)cc1 | 10.1 µM |
| O=C(/C=C/c1ccc(Cl)cc1)c1ccc([N+](=O)[O-])o1 | 24.5 µM |

| Compound | AC50 |
| --- | --- |
| Cc1ccc(S(=O)(=O)/N=C2\C(=O)c3ccccc3C([O-])=C2n2cc[n+](CCC(C)C)c2)cc1 | 11.4 µM |
| COc1cc(CNC2CCCC2)cc(Cl)c1OCc1ccccc1Cl | 17.6 µM |
| O=C(N/N=C/c1ccc([N+](=O)[O-])o1)c1cc2ccccc2o1 | 10.5 µM |
| CCOC(=O)c1cc([N+](=O)[O-])c([N+](=O)[O-])cc1NC(C)=O | 29.9 µM |
| O=C1Nc2cc(C(=O)NCCN3CCCCCC3)ccc2S/C1=C\c1ccccc1 | 28.4 µM |
| Cc1ccc(Oc2c(C(N)=O)cc([N+](=O)[O-])cc2[N+](=O)[O-])cc1 | 25.9 µM |
| COc1ccccc1NS(=O)(=O)c1cccc(C(=O)N/N=C/c2ccc([N+](=O)[O-])o2)c1 | 14.6 µM |
| O=C(N/N=C/c1ccc([N+](=O)[O-])o1)c1ccccc1-n1cccc1 | 32.1 µM |
| COc1ccccc1CNCC(O)Cn1c2ccccc2c2ccccc21 (stereo not drawn) | 20 µM |
| O=C(Cn1ncc(Cl)c(Cl)c1=O)N1CCc2ccccc21 | 5.98 µM |
| O=[N+]([O-])c1ccc(/C=N/n2cnc3ccccc32)s1 | 8.99 µM |
| CS(=O)(=O)c1ncc(Cl)c(C(=O)Nc2ccc3ccccc3c2)n1 | 15.2 µM |
| Oc1ccc(CNc2ccccc2F)c2cccnc12 | 28.2 µM |
| O=C(N/N=C/c1ccc([N+](=O)[O-])s1)C(O)c1ccccc1 (stereo not drawn) | 22.7 µM |
| CC(=O)Nc1ccc(Nc2c3ccccc3nc3ccccc23)cc1 | 25.2 µM |
| O=C(CCl)Nc1cccc(S(=O)(=O)N2CCCCCC2)c1 | 17.9 µM |
| Cc1scc(C(=O)N/N=C/c2ccc([N+](=O)[O-])o2)c1C | 15.7 µM |
| Cc1[nH]c2ccccc2c1C(=O)CCl | 27.6 µM |
| CC1(C)CC(NC(=O)c2ccc(Cl)c(S(=O)(=O)N(Cc3ccccc3)c3ccccc3)c2)CC(C)(C)N1 | 22.7 µM |
| CCC(=O)OCCNc1cc(Sc2nccn2C)c2nonc2c1[N+](=O)[O-] | 27.4 µM |
